Assay [1] concerns the target T1, Monoamine oxidase A (MAO-A) (Homo sapiens, UniProt P21397).
T1 sequence (P21397 1-527): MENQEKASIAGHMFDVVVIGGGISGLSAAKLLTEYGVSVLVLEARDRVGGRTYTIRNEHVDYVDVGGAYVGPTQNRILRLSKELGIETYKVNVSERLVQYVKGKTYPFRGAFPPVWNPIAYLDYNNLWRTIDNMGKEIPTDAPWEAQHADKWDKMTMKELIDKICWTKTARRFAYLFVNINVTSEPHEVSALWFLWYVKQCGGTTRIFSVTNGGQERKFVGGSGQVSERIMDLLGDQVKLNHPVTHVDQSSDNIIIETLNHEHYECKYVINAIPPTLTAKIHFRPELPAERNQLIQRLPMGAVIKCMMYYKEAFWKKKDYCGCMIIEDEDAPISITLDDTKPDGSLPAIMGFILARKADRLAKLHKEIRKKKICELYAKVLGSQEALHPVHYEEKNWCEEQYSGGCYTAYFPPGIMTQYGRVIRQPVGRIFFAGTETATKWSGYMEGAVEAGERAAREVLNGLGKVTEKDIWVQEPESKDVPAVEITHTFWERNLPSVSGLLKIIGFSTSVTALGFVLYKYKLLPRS
Description: Monoaminooxidase A inhibition (H2O2/vanillic acid/HRP readout). The assay is classed as biochemical. As to the method:
(§1) The organic amines p-tyramine or benzylamine were used as substrates for the Monoamine oxidase A (MAO-A) and B (MAO-B) enzymes respectively. The H2O2 produced by this reaction was quantified by reaction with vanillic acid, catalysed by horse radish peroxidase (HRP).
(§2) The reactions were carried out in polystyrene microtitre plates. The MAO enzymes (final concentration 2 U/ml) were mixed with either p-tyramine (Sigma, final concentration 0.5 mM) or benzylamine (Sigma, final concentration 0.5 mM) as appropriate and the chromogenic solution (containing vanillic acid (Fluka), 4-aminoantipyrine (Fluka) and horse radish peroxidase (Sigma), final concentrations 0.25 mM, 0.125 mM and 1 U/ml respectively) in 0.2 M potassium phosphate buffer pH 7.6. The reactions were followed in a microtitre plate absorbance reader eg Spectramax M5 (Molecular Devices Corporation). Absorbance readings at 495 nm were taken every 15 seconds for 40 minutes and the initial reaction velocities calculated by linear regression using SOFTmaxPro (Molecular Devices Corporation).
(§3) The effect of ligustilide, 3-butylphthalide, senkyunolide C and cnidilide on the monoamine oxidase enzymes was determined by their inclusion in the assay at a range of concentrations between 0.03 and 100 μM for 10 minutes prior to and during the incubation with substrate. To determine the effect of the compounds on the HRP catalyzed portion of the reaction, the MAO enzyme was replaced by H2O2 (Molecular Probes, final concentration 0.2 mM). The reactions containing MAO-A and MAO-B were both inhibited by […] according to formula I in a dose dependent manner, whilst the control reaction, was unaffected. The measured IC50 values for inhibition of monoamine oxidase activity by ligustilide, 3-butylphthalide, senkyunolide C and enidilide, respectively, are shown in Table 3.

For assay [2], the target named is T2, Monoamine oxidase B (MAO-B) (Homo sapiens, UniProt P27338).
T2 sequence (P27338 1-520): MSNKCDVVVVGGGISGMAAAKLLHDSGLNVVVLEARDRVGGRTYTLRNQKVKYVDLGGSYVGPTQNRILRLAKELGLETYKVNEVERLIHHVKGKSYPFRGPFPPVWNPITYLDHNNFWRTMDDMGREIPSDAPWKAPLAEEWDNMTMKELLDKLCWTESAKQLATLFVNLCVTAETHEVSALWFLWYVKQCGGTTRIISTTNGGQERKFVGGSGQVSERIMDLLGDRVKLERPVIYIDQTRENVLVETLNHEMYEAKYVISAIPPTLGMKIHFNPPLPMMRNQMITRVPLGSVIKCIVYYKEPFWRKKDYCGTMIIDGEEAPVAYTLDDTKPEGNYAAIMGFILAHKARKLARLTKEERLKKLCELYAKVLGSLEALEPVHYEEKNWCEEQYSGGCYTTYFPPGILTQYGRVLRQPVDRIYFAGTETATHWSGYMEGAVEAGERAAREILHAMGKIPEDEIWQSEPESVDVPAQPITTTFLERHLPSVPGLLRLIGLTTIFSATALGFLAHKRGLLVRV
Description: Monoaminooxidase B inhibition (H2O2/vanillic acid/HRP readout). The assay is classed as biochemical. As to the method:
as §1, §2, §3

Assay [3] addresses T3, human serotonin re-uptake transporter (hSERT) (Homo sapiens, UniProt P31645).
T3 construct: host or cells: HEK-293
Description: Serotonin uptake inhibition in HEK-293 cells expressing hSERT. The assay is classed as cell-based. To be noted: transfected HEK-293 cells; 20 nM (3H) serotonin, 30 minutes; average +/− s.e.m.; read-out: IC50 for tritiated serotonin uptake. How it is done: HEK-293 cells stably expressing the human serotonin re-uptake transporter (hSERT) were obtained from R. Blakely, Vanderbilt University, USA. The cells were routinely grown in Dulbeco's Modified Eagles Medium, purchased from Bioconcept, Allschwil, Switzerland containing 10% fetal calf serum, penicillin, streptomycin, L-glutamine and the antibiotic G418 and passaged by trypsinisation. One day prior to the assay cells were seeded in the above mentioned medium. Immediately prior to the assay the medium was replaced by Krebs Ringers bicarbonate buffer, purchased from Sigma Chemicals Ltd., supplemented with 35 μM pargyline, 2.2 mM CaCl2, 1 mM ascorbic acid and 5 mM N-2-hydroxyethylpiperazine-N′-2-ethanesulfonic acid (buffer called “Hepes”). Serotonin uptake into the cells was determined by addition of radio-labeled (3H) serotonin (Amersham Biosciences GE Healthcare, Slough, UK) to a concentration of 20 nM, and incubation for 30 minutes at room temperature. Following removal of unincorporated label by gentle washing three times with the above buffer, incorporated serotonin was quantified by liquid scintillation counting.
The effect of the compounds of formula I on the serotonin uptake was determined by its inclusion in the assay at a range of concentrations between 0.03 and 100 μM for 10 minutes prior to and during the addition of (3H) serotonin/citalopram. Serotonin uptake via the transporter was inhibited by ligustilide, 3-butylphthalide, senkyunolide A, senkyunolide C, senkyunolide B, and cnidilide, respectively, in a dose dependent manner, with IC50 values as shown in Table 2.

T3 sequence (P31645 whole entry): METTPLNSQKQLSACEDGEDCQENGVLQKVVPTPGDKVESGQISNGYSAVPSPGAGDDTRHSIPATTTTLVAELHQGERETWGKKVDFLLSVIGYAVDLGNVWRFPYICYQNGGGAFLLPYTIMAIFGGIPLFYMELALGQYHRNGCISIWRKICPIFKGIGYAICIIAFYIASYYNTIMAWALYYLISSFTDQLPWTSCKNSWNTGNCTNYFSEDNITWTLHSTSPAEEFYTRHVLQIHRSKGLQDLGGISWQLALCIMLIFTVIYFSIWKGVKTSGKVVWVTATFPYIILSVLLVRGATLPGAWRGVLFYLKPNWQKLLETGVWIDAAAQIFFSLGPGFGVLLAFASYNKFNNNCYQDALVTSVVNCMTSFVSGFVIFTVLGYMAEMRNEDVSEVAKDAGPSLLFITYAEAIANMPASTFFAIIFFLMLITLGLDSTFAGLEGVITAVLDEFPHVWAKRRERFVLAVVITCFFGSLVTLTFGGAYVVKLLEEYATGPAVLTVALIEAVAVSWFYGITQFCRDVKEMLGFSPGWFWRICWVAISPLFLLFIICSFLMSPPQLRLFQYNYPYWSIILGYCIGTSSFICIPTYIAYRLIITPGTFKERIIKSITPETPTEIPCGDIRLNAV

Take `CCC/C=C1\OC(=O)C2=C1CCC=C2` [Ligustilide]: the IC50 (in general, the concentration that gives 50% inhibition) came out at 15.7 µM in assay [1], 24.9 µM in assay [2] and 20.4 µM in assay [3].

`CCCC[C@@H]1OC(=O)c2ccccc21` (stereo in doubt) [3-n-butylphthalide, 3-n-Butylphthalide]: the IC50 was found to be 8.1 µM in assay [1], 56.1 µM in assay [2] and 35.2 µM in assay [3].
